Experimental data from US20070166356A1, “Food supplement for animals, comprising an olfactory additive” (ADISSEO IRELAND LIMITED, priority 2004, published 2007).

System: turkey poults of stock BUT 9
Test: Free-choice feed consumption test in 6 day turkey poults
Format: in vivo
Settings: per cage of 5 turkey poults
Text: Test item no. 2 therefore comprises 0.05% of olfactory additive for 99.95% of methionine hydroxyl-analog. The test items are incorporated into a mixture of maize and soya, which is used as basic feed. The experimental plan is the following: [table] 150 turkey poults of stock BUT 9 are selected and placed in cages fitted out with a water bowl and two feeders with a capacity of about 0.3 kg. 5 turkey poults are placed per cage. The animals receive during the pre-experimental period (i.e. from D0to D6, 8.00am), an identical standard starting feed. During the experimental phase (i.e. D6 from 8am to 5pm), the animals are separated into three groups 10 A, B and C. For each group and each cage of this group, the animals have the choice between two test items. For example the animals of group A may choose between test item no. 3 and test item no. 1. Feeding is ad libitum with checking of consumption at […]. Furthermore, at each measuring time, the two feeders are interchanged in order to prevent the animals from being accustomed to the positioning of the feeders. […] The illustrated consumption is the consumption per cage, i.e. for 5 turkey poults. This consumption satisfies the following formula: (weight of the feeder at the end of the period)-(weight of the feeder at the beginning of the period). Averages are performed for each group over 12 cages.

With `CSCC[C@H](N)C(=O)O` [Test item no. 3, methionine] the “Consumption, Average” value (T0 + 1 h, group A: choice test item no. 3 (0.2%) vs no. 1 (0.23%)) was 6.8 g, the “Consumption, Average” value (T0 + 1 h, group B: choice test item no. 3 (0.2%) vs no. 2 (0.23%), no. 2 = hydroxy analog + 0.5 g/kg olf. additive) was 9.1 g and the “Consumption, Average” value (T0 + 3 h, group A: choice test item no. 3 (0.2%) vs no. 1 (0.23%)) was 15.5 g. For the same compound, the “Consumption, Average” value (T0 + 3 h, group B: choice test item no. 3 (0.2%) vs no. 2 (0.23%)) was 14.9 g, the “Consumption, Average” value (T0 + 5 h, group A: choice test item no. 3 (0.2%) vs no. 1 (0.23%)) was 23.3 g and the “Consumption, Average” value (T0 + 5 h, group B: choice test item no. 3 (0.2%) vs no. 2 (0.23%)) was 22.6 g. The “Consumption, Average” value (T0 + 7 h, group A: choice test item no. 3 (0.2%) vs no. 1 (0.23%)) was 30.3 g, the “Consumption, Average” value (T0 + 7 h, group B: choice test item no. 3 (0.2%) vs no. 2 (0.23%)) was 30.0 g and the “Consumption, Average” value (T0 + 9 h, group A: choice test item no. 3 (0.2%) vs no. 1 (0.23%)) was 37.7 g. For the same compound, the “Consumption, Average” value (T0 + 9 h, group B: choice test item no. 3 (0.2%) vs no. 2 (0.23%)) was 36.8a g.
